Source: patent publication US8710082B2, “Benzimidazole inhibition of biofilm formation” (priority 2011, dated 2014)
“Also recorded” adds a separate entry of the source.

How the values were obtained:
V. cholerae [1] = experiment: MBEC static crystal-violet biofilm assay, V. cholerae; format: cell-based, Vibrio cholerae; details: for inhibition of V. cholerae biofilm development: 100 μM, MBEC crystal-violet assay
P. aeruginosa CF-145 [2] = experiment: MBEC static crystal-violet biofilm assay, P. aeruginosa CF-145; format: cell-based, Pseudomonas aeruginosa
Method: (§1) Biofilm formation was measured under both static and flow conditions. For the static condition, we used quantitative crystal violet assay on polystyrene 96-well and MBEC plates (Biosurface Technologies, Bozeman Mont.) as described previously. The MBEC technology is a 96-well plate cover containing 96 polystyrene pegs that sit in the 96 wells of a conventional plate. Briefly, overnight grown cultures were standardized to 0.1 OD595, 200 μL was transferred to the wells of a 96-well polystyrene microtiter plate (Corning, Inc., Corning, N.Y.), and the MBEC lid was placed on top of the wells. Biofilms were grown on the pegs of the lid under shaking conditions for 24 h. The lid was removed and the pegs were gently washed twice with 200 μL of phosphate-buffered saline to remove non adherent cells. Adherent biofilms on the pegs were fixed with 200 μL of 100% ethanol prior to staining for 2 min with 200 μL of 0.41% (wt/vol) crystal violet in 12% ethanol (Protocol Crystal Violet; Biochemical Sciences, Swedesboro, N.J.). […] Quantitative assessment of biofilm formation was obtained by immersing the pegs in sterile polystyrene microtiter plate containing 200 μl of 100% ethanol and incubating at room temperature for 10 min (60) and the absorbance at 595 nm was determined using a SpectraMax M5 microplate spectrophotometer system (Molecular Devices, Sunnyvale, Calif.). […]

Klebsiella pneumoniae [3] = experiment: MBEC static biofilm assay, K. pneumoniae; format: cell-based; details: ABC-1 between 50 and 100 μM for select pathogens, 24 hours
Method: as §1

Erwinia amylovora = experiment: MBEC static biofilm assay, E. amylovora; format: cell-based; details: 100 μM
Method: as §1

Shigella boydii = experiment: MBEC static biofilm assay, S. boydii; format: cell-based; details: 100 μM
Method: as §1

S. aureus strain Newman [4] = experiment: MBEC static biofilm assay, S. aureus Newman; format: cell-based, Staphylococcus aureus; details: 25 μM
Method: as §1

[5] = tested on: Staphylococcus aureus MRSA strain USA3000; experiment: MBEC static biofilm assay, S. aureus USA300 (CA-MRSA); format: cell-based; details: 25 μM
Method: as §1

V. cholerae [6] = experiment: Flow-cell biofilm formation (CLSM), V. cholerae; format: cell-based, Vibrio cholerae; details: 10 μM, 24 hours
Method: For biofilm experiments under flow conditions, biofilms were grown in disposable flow cells (Stovall Life Science, Greensboro, N.C.) as described elsewhere. In brief, the inlet side of the flow cell was connected to a sterile reservoir filled with the appropriate growth medium. The outlet side was connected to a waste reservoir to create a “once-through” flow cell system. Tubing upstream of each individual cell was injected with 0.5 mL of standardized overnight culture of the test strain and the chamber was incubated in upright position at 37° C. for 1 h. Flow was then resumed with flow rate of 0.2 mL/min for V. cholerae, P. aeruginosa, S. boydii, S. aureus and K. pneumoniae, and a flow rate of 0.15 mL/min for E. amylovora. The non-adherent bacteria were eventually flushed by the flow of the medium thereby replacing the volume of the flow cell once every minute. Biofilm formation on the flow cell was imaged both macroscopically and microscopically at 24 h and 48 h. […]
For CLSM analysis of biofilms, the medium flow was stopped and fluorescent dyes syto-9 and propidium iodide (Molecular Probes, Eugene, Oreg., USA) were injected into the flow cell chamber and incubated for 30 min in the dark. […] Thickness of the biofilm was measured starting from the z-section at the flow-cell/biofilm interface to the z-section at the top of the biofilm surface containing <5% of total biomass. […]

P. aeruginosa CF-145 [7] = experiment: Flow-cell biofilm formation (CLSM), P. aeruginosa CF-145; format: cell-based, Pseudomonas aeruginosa; details: 100 μM, 24 h
Klebsiella pneumoniae [8] = experiment: Flow-cell biofilm formation (CLSM), K. pneumoniae; format: cell-based; details: continuous flow
E. amylovora = experiment: Flow-cell biofilm formation (CLSM), E. amylovora; format: cell-based, Erwinia amylovora; details: 100 μM, continuous flow
S. boydii = experiment: Flow-cell biofilm formation (CLSM), S. boydii; format: cell-based, Shigella boydii; details: 100 μM, 48 h
S. aureus strain Newman [9] = experiment: Flow-cell biofilm formation (CLSM), S. aureus Newman; format: cell-based, Staphylococcus aureus; details: 25 μM, shear conditions
CA-MRSA (USA-300) = experiment: Flow-cell biofilm formation (CLSM), CA-MRSA USA300; format: cell-based, Staphylococcus aureus; details: 25 μM, shear conditions
[10] = tested on: K. pneumoniae pre-formed biofilms; experiment: Dispersal of pre-formed biofilms under flow, K. pneumoniae; format: cell-based, Klebsiella pneumoniae; details: 100 μM added at 24 hours, 3, 6 and 24-hour incubation
[11] = tested on: P. aeruginosa pre-formed biofilms; experiment: Dispersal of pre-formed biofilms under flow, P. aeruginosa; format: cell-based, Pseudomonas aeruginosa; details: 100 μM added at 24 hours, 3, 6 and 24-hour incubation
S. aureus = format: cell-based, Staphylococcus aureus; details: data not shown
gram-negative bacteria = experiment: Impact on growth of gram-negative bacteria; format: cell-based; details: concentrations used in biofilm tests; data not shown
c-di-GMP in V. cholerae = format: cell-based, Vibrio cholerae
[12] = tested on: c-di-GMP in P. aeruginosa PA01; format: cell-based, Pseudomonas aeruginosa; details: 35 μM, data not shown
[13] = tested on: diguanylate cyclase (DGC) enzyme VC2370; format: biochemical
Source text: (§2) Furthermore, we established an in vitro assay to measure the activity of the diguanylate cyclase (DGC) enzyme VC2370 that synthesizes c-di-GMP and the phosphodiesterase (PDE) enzyme VieA that degrades c-di-GMP.

[14] = tested on: phosphodiesterase (PDE) enzyme VieA; format: biochemical
Source text: as §2

VC1673-lux = experiment: microbe, parasite or virus in culture; details: Vibrio cholerae, read-out: IC50 of inhibition of VC1673-lux

How did the “inhibition of V. cholerae biofilm development” value (V. cholerae [1]) turn out when `COc1ccc2[nH]c(SCc3ccc(C)cc3)nc2c1` [ABC-1, 5-methoxy-2-[(4-methylbenzyl)sulfanyl]-1H-benzimidazole] was run?
The value was “capable of significantly inhibiting V. cholerae biofilm development”.

And the IC50 (V. cholerae [1]; Vibrio cholerae, read-out: IC50 to inhibit biofilm formation of V. cholerae)?
The IC50 was 32.3 nM.

What about the “inhibition of biofilms, static” value (P. aeruginosa CF-145 [2]; ABC-1 between 50 and 100 μM for select pathogens, MBEC static) of the same compound?
The value was “significantly inhibited biofilms”.

And the IC50 (P. aeruginosa CF-145 [2]; Pseudomonas aeruginosa, CF145, read-out: IC50 to inhibit biofilm formation of P. aeruginosa)?
The IC50 was 45.9 nM.

What about the “inhibition of biofilms, static” value (Klebsiella pneumoniae [3]) of the same compound?
Its value is “significantly inhibited biofilms; also recorded: inhibited biofilm formation”.

And the “inhibition of biofilms, static” value (Erwinia amylovora)?
The value was “significantly inhibited biofilms; also recorded: pronounced decrease”.

What about the “inhibition of biofilms, static” value (Shigella boydii) of the same compound?
Its value is “significantly inhibited biofilms; also recorded: significantly impacted”.

What about the “inhibition of biofilms, static” value (S. aureus strain Newman [4]) of the same compound?
Its value is “significantly inhibited biofilms; also recorded: statistically significant (P<0.05), but less robust than observed for most gram-negative pathogens”.

What about the “inhibition of biofilms, static” value [5] of the same compound?
Its value is “significantly inhibited biofilms; also recorded: statistically significant (P<0.05), but less robust than observed for most gram-negative pathogens”.

What about the “biofilm formation under flow” value (V. cholerae [6]) of the same compound?
The value was “dramatically reduced biofilm formation”.

What about the “biofilm formation under flow” value (P. aeruginosa CF-145 [7]) of the same compound?
Its value is “greatly reduced biofilm formation”.

What about the “biofilm formation under flow” value (Klebsiella pneumoniae [8]; 24 hours) of the same compound?
The value was “inhibited biofilm formation”.

And the “fate of biofilms that did form in the presence of ABC-1” value (Klebsiella pneumoniae [8]; data not shown)?
The value was “began to disperse beyond 30 hours”.

And the “biofilm development under flow” value (E. amylovora)?
The value was “pronounced decrease”.

And the “biofilm formation under flow” value (S. boydii)?
Its value is “greatly reduced biofilm formation”.

And the “biofilm formation under flow” value (S. aureus strain Newman [9])?
Its value is “less surface area coverage and biofilms were present as small patches”.

And the “biofilm formation under flow” value (CA-MRSA (USA-300))?
Its value is “reduced compared to the untreated condition”.

And the “dispersal of pre-formed biofilms” value [10]?
Its value is “did not confer any significant changes in biofilm architecture”.

And the “dispersal of pre-formed biofilms” value [11]?
The value was “did not confer any significant changes in biofilm architecture”.

And the “concentration that inhibited the growth of S. aureus” value (S. aureus)?
The value was ≥ 50 µM.

And the “inhibition of growth of gram-negative bacteria” value (gram-negative bacteria)?
Its value is “no impact on growth; also recorded: no concentration of ABC-1 showed inhibition of growth”.

What about the “intracellular c-di-GMP” value (c-di-GMP in V. cholerae) of the same compound?
Its value is “modest reduction”.

What about the “levels of c-di-GMP” value [12] of the same compound?
Its value is “no effect”.

And the “in vitro activity of DGC VC2370” value [13]?
The value was “no significant impact”.

What about the “in vitro activity of PDE VieA” value [14] of the same compound?
The value was “no significant impact”.

What about the IC50 (VC1673-lux) of the same compound?
The IC50 was < 10000 nM.

Which results are given for `COc1ccc2[nH]c(SCc3ccc(Cl)cc3)nc2c1` [ABC-2, 2-[(4-chlorobenzyl)thio]-5-methoxy-1H-benzimidazole]?
inhibition of V. cholerae biofilm development (V. cholerae [1]): capable of significantly inhibiting V. cholerae biofilm development; IC50 (VC1673-lux): < 10000 nM
